Reference: patent publication US20190254276A1 (priority 2010, published 2019)
Where two headings read alike, the source gives them in different places.

Legend:
[1] = tested on: TGEV; conditions: 45% PG eluate; for Reduction Factor: vs T0
[2] = tested on: BVDV; conditions: 45% PG eluate; for Titre: Standard titration; for Reduction Factor: vs T0

propane-1,2-diol [PG]
Clearance Factor ([1]; Run 1, T = 0 Load Sample): 0.07 log
Titre ([1]; Run 1, T = 0 Load Sample, Standard titration): 5.12 log10 TCID50/ml
Clearance Factor ([1]; Run 1, T = 5 min): 124 log
Log10TICD50 (total viral load) ([1]; Run 1, T = 5 min): 5.21 Log10TICD50
Titre ([1]; Run 1, T = 5 min, Standard titration): 3.95 log10 TCID50/ml
Reduction Factor ([1]; Run 1, T = 5 min): 1.0 log
Titre ([1]; Run 1, T = 15 min, Standard titration): 2.78 log10 TCID50/ml
Titre ([1]; Run 1, T = 60 min, Standard titration): 132 log10 TCID50/ml
Reduction Factor ([1]; Run 1, T = 60 min): 3.0 log
Clearance Factor ([1]; Run 1, T = 180 min): 4.38 log
Log10TICD50 (total viral load) ([1]; Run 1, T = 180 min): 3.08 Log10TICD50
Titre ([1]; Run 1, T = 180 min, Standard titration): 0.8 log10 TCID50/ml
Titre ([1]; Run 1, T = 360 min, Standard titration): <0.8 log10 TCID50/ml
Clearance Factor ([1]; Run 2, T = 0 Load Sample): 0.08 log
Titre ([1]; Run 2, T = 0 Load Sample, Standard titration): 5.28 log10 TCID50/ml
Titre ([1]; Run 2, T = 5 min, Standard titration): 4.26 log10 TCID50/ml
Reduction Factor ([1]; Run 2, T = 5 min): 1 log
Log10TICD50 (total viral load) ([1]; Run 2, T = 15 min): 5.40 Log10TICD50
Titre ([1]; Run 2, T = 15 min, Standard titration): 3.2 log10 TCID50/ml
Reduction Factor ([1]; Run 2, T = 15 min): 8.05 log
Clearance Factor ([1]; Run 2, T = 60 min): 4.50 log
Titre ([1]; Run 2, T = 60 min, Standard titration): 0.8 log10 TCID50/ml
Reduction Factor ([1]; Run 2, T = 60 min): 4.45 log
Titre ([1]; Run 2, T = 180 min, 1 LVP (96 wells)): −0.12 log10 TCID50/ml
Reduction Factor ([1]; Run 2, T = 180 min, LVP): 5.4 log
Titre ([1]; Run 2, T = 360 min, 1 LVP (96 wells)): <−0.12 log10 TCID50/ml
Reduction Factor ([1]; Run 2, T = 360 min, LVP): >5.40 log
Clearance Factor ([2]; Run 1, T = 0 Load Sample): 0.43 log
Clearance Factor ([2]; Run 1, T = 5 min): 165 log
Log10TICD50 (total viral load) ([2]; Run 1, T = 5 min): 4.53 Log10TICD50
Titre ([2]; Run 1, T = 5 min): 18 log10TCID50/ml
Reduction Factor ([2]; Run 1, T = 5 min): 122 log
Clearance Factor ([2]; Run 1, T = 15 min): 13 log
Log10TICD50 (total viral load) ([2]; Run 1, T = 15 min): 6.50 Log10TICD50
Reduction Factor ([2]; Run 1, T = 15 min): 0.97 log
Clearance Factor ([2]; Run 1, T = 60 min): 13 log
Log10TICD50 (total viral load) ([2]; Run 1, T = 60 min): 4.90 Log10TICD50
Reduction Factor ([2]; Run 1, T = 60 min): 0.97 log
Clearance Factor ([2]; Run 1, T = 180 min): 13 log
Log10TICD50 (total viral load) ([2]; Run 1, T = 180 min): 4.58 Log10TICD50
Reduction Factor ([2]; Run 1, T = 180 min): 0.97 log
Clearance Factor ([2]; Run 2, T = 0 Load Sample): 0.44 log
Log10TICD50 (total viral load) ([2]; Run 2, T = 0 Load Sample): 5.78 Log10TICD50
Titre ([2]; Run 2, T = 25): 132 log10TCID50/ml
Reduction Factor ([2]; Run 2, T = 25): 171 log
Clearance Factor ([2]; Run 2, T = 5 min): 188 log
Titre ([2]; Run 2, T = 5 min): 159 log10TCID50/ml
Reduction Factor ([2]; Run 2, T = 5 min): 144 log
Clearance Factor ([2]; Run 2, T = 60 min): 168 log
Titre ([2]; Run 2, T = 60 min): 189 log10TCID50/ml
Reduction Factor ([2]; Run 2, T = 60 min): 144 log
